# Columns and labels:
# CYP2B6 = biological target: T1, CYP2B6 (Homo sapiens, UniProt P20813); assay: Single concentration Kobs assay (time-dependent inhibition) in HLM; type: biochemical; conditions: for Kobs 2B6: HLM, single concentration, 0.02 min^−1 indicates TD inhibition potential; for Single concentration Kobs assay (risk bin) 2B6: TD inhibition class from Kobs vs 0.02 min^−1 (Table 5 traffic lights)
# T1 construct: Using HLM as the enzyme source; from tissue; host or cells: human liver microsomes
# T1 sequence (P20813 1-491): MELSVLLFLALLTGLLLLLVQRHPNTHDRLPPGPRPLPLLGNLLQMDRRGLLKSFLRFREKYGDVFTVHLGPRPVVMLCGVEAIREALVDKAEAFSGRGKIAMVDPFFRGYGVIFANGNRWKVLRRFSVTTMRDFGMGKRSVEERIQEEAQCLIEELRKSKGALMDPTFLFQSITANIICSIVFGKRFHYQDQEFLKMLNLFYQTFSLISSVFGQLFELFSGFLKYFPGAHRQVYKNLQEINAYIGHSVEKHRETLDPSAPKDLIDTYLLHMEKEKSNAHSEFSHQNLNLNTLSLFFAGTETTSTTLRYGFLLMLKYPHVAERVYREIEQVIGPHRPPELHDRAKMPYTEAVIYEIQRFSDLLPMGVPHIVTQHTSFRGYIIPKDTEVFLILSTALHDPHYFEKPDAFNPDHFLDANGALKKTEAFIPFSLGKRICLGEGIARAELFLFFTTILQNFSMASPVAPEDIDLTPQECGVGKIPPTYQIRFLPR
# Text: CYP inhibition evaluation is typically performed by either IC50 at single-point or IC50 Shift or abbreviated assay such as the first-order inactivity rate constant (K obs ) at single concentration.
# This method yielded good correlations between the percent inhibition at 10 or 25 μ M and kinact/KI. Evaluation of TD inhibition at single concentration has been implemented in several drug discovery programs. […] Therefore, in this study, a single K obs approach has been utilized to understand the TD inhibition potential of TbB ligands. Ideally, the inhibition of CYPs can be reversible or irreversible. The data obtained from single-concentration K obs studies were analyzed to understand the same. From the data presented in Table 4, the TbB ligands have values less than 50% for reversible inhibition (R_Inh). As the qualified % reversible inhibition is considered significant if >50%, no significant reversible inhibition is observed for TbB ligands. Knowledge about enzyme inactivation half-life (E½) is also equally important as it would provide insight into the TD inhibition of a compound. E½ can be used to bin the compounds as positive or negative TD inhibitors if the values are <28 or >28, respectively. The TbB ligand 223-2 is observed to be a weak positive TD inhibitor of 1A2 and is negative TD inhibitor to the other six CYP isoforms.
# The time-dependent inhibition (TDI) potential of test compounds against CYP1A2, 2B6, 2C8, 2C9, 2C19, 2D6, 3A4/5 isoforms were determined using Human liver microsomes. Assay is performed in 96-deep well plate format (n = 1). Positive controls and DMSO as negative control in each assay. To obtain 100 μ M working stock solution, 1 μ L of blank DMSO/test/reference compounds to 100 μ L 1× DPBS buffer was added and labeled as dilution plate. To the primary incubation plate, 45 μ L of primary mix was dispensed to the desired wells containing 25 μ L HLM, 10 μ L MgCl2, and 10 μ L of NADPH working solutions. To the secondary incubation plate, 95 μ L of secondary mix was dispensed to the desired wells containing 20 μ L MgCl2, 20 μ L NADPH, 10 μ L respective substrates for CYP isoform working solutions and 45 μ L 1× DPBS buffer. Each of these four plates were labeled with their respective time points, i.e., 0, 6, 16, 32 min. Pre-incubated the dilution plate along with primary incubation plate at 37 °C for 15 min at 450 rpm. The reaction was carried out in triplicate. After the incubation, the reaction was quenched by adding 150 μ L ice cold stop solution to all the wells followed by centrifuging the samples at 4000 rpm, 4 °C for 15 min. The supernatant samples were then transferred into vials for LC-MS/MS analysis. The percent Reversible Inhibition was calculated using the following formula. %Reversibleinhibition=100−(PARtestcompt0×100)/(PARaverageDMSOt0)
# [1] = Substrate depletion assay in cryopreserved human hepatocytes (CPHH); type: in vitro ADME; conditions: pooled cryopreserved human hepatocytes; for half-life at 1 µM: pH 7.3, test conc. 1.0E-06 M (Table S4); for half-life / hepatocyte CLint: pH 7.3, test conc. 1×10^−6 M, n = 3
# Description: Microsomal stability was determined for the TbB ligands by monitoring the presence of compound after incubation in CPHH and HLM, as shown in Figure 7 and Figure S18 of the Supporting Information. […] Such an observation with NCEs is common because, with HLM, NADPH is used as a cofactor, thereby focusing mainly on phase 1 oxidation pathways such as P450 metabolism. Although additional enzymes, such as UDP-glucuronosyltransferase (UGTs), are present in HLM, the lack of the associated necessary cofactors prevents them from being functionally active (e.g., uridine diphosphate glucuronic acid (UDPGA)). In contrast, all the three TbB ligands metabolized in cryopreserved hepatocytes (Figure 7). […] The reason could be that hepatocytes have all the necessary enzymes and cofactors for the metabolic processes. Since they contain the complete set of oxidative/reductive, hydrolytic, and conjugative drug metabolizing enzymes found in the liver, they are regarded as the gold standard. Therefore, they are preferred in vitro options for expressing metabolic stability as substrate depletion, total metabolic clearance, and T 1/2 [29].
# From the plot shown in Figure S18 of the Supporting Information, it can be inferred that the TbB ligands undergo slow biotransformation in HLM. Such high metabolic stability may result in drug interactions leading to toxicity of the parent compound. On the contrary, TbB ligands are undergoing rapid biotransformation in CPHH (Figure 7), and this may lead to generation of metabolites that are either toxic, active, or nonactive. Metabolic stability is typically expressed by in vitro half-life T 1/2 and intrinsic clearance (CLint) terms. Intrinsic clearance (CLint) is measured using the substrate depletion method. It describes the maximum liver (microsomal proteins or hepatocytes) activity towards a compound not affected by other physiological factors such as hepatic blood flow and drug binding within the blood matrix. T 1/2 is used to express the time for the 50% disappearance of the parent compound. A possible explanation for the difference in metabolic stability might be that the TbB ligands bind to microsomes during incubation. This can result in decreased free TbB ligand levels available to interact with metabolizing enzymes, reducing apparent intrinsic clearance values.
# The test compound stability in a pooled human cryopreserved hepatocytes was tested after thawing, washing, and resuspending the cryopreserved hepatocytes in Krebs–Heinslet buffer (pH 7.3). The onset of reaction happens by the addition of the test compound into cell suspension and incubated for 0, […], 1, 1.5, and 2 h, respectively, at 37 °C/5% CO 2 . The reaction is terminated in the incubation mixture by the addition of acetonitrile. After thorough sample mixing, the sample was completely transferred to another 96-well plate and centrifuged, followed by HPLC-MS/MS analysis of supernatant. Four compounds as reference, namely, propranolol, a relatively stable and readily metabolizing flurazepam, naloxone, and HFC (7-hydroxy-4-trifluoromethyl-coumarin) in human hepatocytes were included in each assay. Data analysis was performed as mentioned above and the intrinsic clearance (CLint) is calculated from the half-life using the following equation. CLint(μL/min/millioncells)=0.693/T1/2×CellDensity.
SMILES,Kobs 2B6 (CYP2B6) [min⁻¹],Single concentration Kobs assay (risk bin) 2B6 (CYP2B6),half-life at 1 µM [1] [min],half-life [1] [min],hepatocyte CLint [1] [µL/min/1e6 cells],Kobs 2B6 (CYP2B6; listed as 223-02) [min⁻¹]
Cc1cc(-c2nnn(-c3cc(C)c(O)c(C)c3)n2)cc(C)c1O [223-3],0.02027,weak positive inhibitor,54,54,18.4,–
COc1cc(-c2nnn(-c3cc(OC)c(O)c(OC)c3)n2)cc(OC)c1O [223-2],0.0147,weak positive inhibitor,33,33,29.8,0.01472
Oc1ccc(-c2nnn(-c3ccc(O)cc3)n2)cc1 [223-10],0.01121,weak positive inhibitor,36,36,27.8,–

# From PMC9921896 (Molecules, 2023)
